US20250161223A1, “PHARMACEUTICAL FORMULATION” (Novartis AG, priority 2022, published 2025)

Assays:
[1] = Chemical compatibility study of drug substance alone and binary mixtures (HPLC); assay type: physicochemical; conditions: 4 weeks, 40° C./75% RH
Method: For HPLC in Table 1, the following conditions were applied: • Mobile Phase A: 0.1% Trifluoroacetic acid in Water. • Mobile Phase B: Water:Acetonitrile(50:950 v/v) • Column: Aquity HSS T3, • Column Dimension: Length—100 mm, Internal Diameter—2.1 mm, Particle size—1.8 μm • Flow Rate: 0.5 mL/min • Detection: 220 nm • Column Temperature: 40° C. • Auto sampler Temperature: 22° C. • Injection Volume: 4 μL • Run Time: 13.0 minutes • Program: Gradient […] All excipients except PVP-K30 may still be suitable for formulation when used in ratios more realistic in a final formulation (see Example 2).

[2] = Solid form conversion of slurry in water; assay type: physicochemical; conditions: 30% w/w slurry in water; after 5 hrs
Excerpt: WG based core tablets can easily be converted into film-coated tablets with conventional coating operations. […] Looking at an unknown landscape of polymorphs for TNO155, WG was not pursued further.

C[C@@H]1OCC2(CCN(c3cnc(Sc4ccnc(N)c4Cl)c(N)n3)CC2)[C@@H]1N [TNO155-BBA, (3S,4S)-8-(6-amino-5-((2-amino-3-chloropyridin-4-yl)thio)pyrazin-2-yl)-3-methyl-2-oxa-8-azaspiro[4.5]decan-4-amine succinate (1:1) hemihydrate form HA]
Assay of active ingredient ([1]; closed): 98.6%
Assay of active ingredient ([1]; open): 98.7%
Solid form stability in slurry [2]: solid form conversion
